Read-outs that look alike come from different tables or passages of the source.

Series [1] relates to patients with Crohn's disease. The following applies: cited from earlier work.
Series [2] concerns the target T1, unphosphorylated recombinant human p38α (Homo sapiens, UniProt Q16539).
T1 construct: made in house; host or cells: E. coli BL21
In words: Differential scanning fluorimetry (DSF), binding to p38α. The following applies: for stabilization of p38α in DSF (binding), in words: DSF melting temperature, concentration series.

The test system of series [3] is HMVECLs. In words: Cytotoxicity assay (MTS, LDH release). In kind it is cell-based, human. The following applies: 100 μM for 48 h. How it is done: Cytotoxicity of HMVECL exposed to 10-100 μM of each compound is analyzed by MTS assay (Promega), LDH release (Promega), and immunoblotting for activated caspase-3 (Cell Signaling).
Cytotoxicity assay: Cytotoxicity was monitored in parallel HMVEC-L monolayers established in 96-well culture plates using a colorimetric assay that measured reduction of 3-(4,5-dimethylthiazol-2-yl)-5-(3-carboxymethoxyphenyl)-2-(4-sulfophenyl)-2H-tetrazolium (MTS) to a formazan dye (CellTiter 96™; Promega; Madison, WI) according to the manufacturer's protocol and quantifying product formation by measuring absorption at 490 nm.
On the technique in general: LDH in the medium is a marker of cell lysis.

For series [4], the system named is LPS/hyperthermia-induced ALI in CD1 mice. The series is described as follows: Mouse i.t. LPS/FRH-induced acute lung injury model. The following applies: single i.p. injection of 100-1000 μg UM101, 1000 μg UM60 or 1000 μg SB203580, 30 min before i.t. 50 μg LPS and hyperthermia.
In series [5] the target is ERK2 (Homo sapiens, UniProt P28482). The series is described as follows: DSF, binding to ERK2. The following applies: for stabilization of ERK2 in DSF (binding), in words: test compounds at 10-100 μM. For orientation: Differential scanning fluorimetry follows unfolding on heating by fluorescence.
For series [6], the system named is HMVECL monolayers. The series is described as follows: Endothelial permeability assay (10 kDa dextran flux). In kind it is cell-based, human. The following applies: HMVECL, 10 kDa dextran, TNFα and 39.5° C. for 6 h. As for the experimental part:
Endothelial permeability assay: Permeability of HMVECL monolayers was assessed by measuring transendothelial flux of 10 kDa dextran conjugated to Cascade blue fluorescent dye for 30 min at 37° C. in Matrigel-coated 3 μm pore size Transwell plates.

For series [7], the system named is IL-8-directed neutrophil TEM through HMVECLs. The series is described as follows: Neutrophil transendothelial migration (TEM) assay. In kind it is cell-based, human. The following applies: HMVECLs preincubated at 39.5° C. for 6 h.
In series [8] the test system is rheumatoid arthritis. The following applies: two trials in rheumatoid arthritis; cited from earlier work.
The subject of series [9] is patients at-risk for ARDS. The following applies: early phase IIa trial, cited from earlier work.
Series [10] deals with patients with hypercholesterolemia. The following applies: cited from earlier work.
Where [11] appears, read: 100 μM, change in melting temperature relative to DMSO control in DSF assay.

ERK2, sequence (P28482 whole entry, species assumed): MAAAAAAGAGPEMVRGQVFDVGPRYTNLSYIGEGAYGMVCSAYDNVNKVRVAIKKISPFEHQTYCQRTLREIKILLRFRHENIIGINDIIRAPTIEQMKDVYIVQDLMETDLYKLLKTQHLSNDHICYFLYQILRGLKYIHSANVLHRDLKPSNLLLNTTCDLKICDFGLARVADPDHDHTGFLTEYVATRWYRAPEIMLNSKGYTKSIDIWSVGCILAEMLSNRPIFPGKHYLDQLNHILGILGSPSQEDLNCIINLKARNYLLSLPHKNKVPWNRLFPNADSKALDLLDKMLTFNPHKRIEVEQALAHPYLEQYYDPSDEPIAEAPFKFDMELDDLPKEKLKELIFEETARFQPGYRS
T1 sequence (Q16539 whole entry): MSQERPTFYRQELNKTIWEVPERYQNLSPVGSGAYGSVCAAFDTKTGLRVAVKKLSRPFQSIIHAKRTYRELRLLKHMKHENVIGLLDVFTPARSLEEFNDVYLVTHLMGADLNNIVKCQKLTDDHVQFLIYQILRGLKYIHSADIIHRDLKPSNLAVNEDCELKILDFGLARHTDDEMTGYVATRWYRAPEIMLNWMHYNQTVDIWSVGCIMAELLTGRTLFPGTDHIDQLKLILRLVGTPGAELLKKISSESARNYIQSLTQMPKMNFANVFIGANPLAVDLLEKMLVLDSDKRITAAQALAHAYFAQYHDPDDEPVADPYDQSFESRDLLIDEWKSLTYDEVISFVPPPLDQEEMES

On to `Cc1ccc(-n2nc(C(C)(C)C)cc2NC(=O)Nc2ccc(OCCN3CCOCC3)c3ccccc23)cc1` [BIRB 796], for which, in series [1], the “clinical effect in Crohn's disease” value is recorded as “no clinical effect” and the “serum CRP levels” value was “transiently reduced”.
As for `O=C1c2cc(S(=O)(=O)NCCO)ccc2-c2ccc(S(=O)(=O)NCCO)cc21` [UM60, N2,N7-di(2-hydroxyethyl)-9-oxo-9H-2,7-fluorenedisulfonamide], the ΔTm at 100 µM in series [2] (100 μM, change in melting temperature relative to DMSO control in DSF assay, read-out: p38α ΔTm (° C.) @100 μM) is 0.735 °C; in series [2] (added at 100 μM, DSF, read-out: increase in melting temperature of p38α) it was roughly 0.7 °C; in [5] (setting [11]), 0.195 °C. The “stabilization of p38α in DSF (binding), in words” value (from here on “stabilization of p38α in DSF”) in [2] is reported as “stabilized p38α”. Also, the “toxicity in LDH release and MTS assays” value in series [3] was “Neither compound was toxic”. Moreover, the “mice that died within 24 h” value in series [4] is “Four of six”. For the same molecule, in series [5], the “stabilization of ERK2 in DSF (binding), in words” value (“stabilization of ERK2 in DSF” for short) is recorded as “not ERK2”. In addition, the “reduction of TNFα/hyperthermia-induced permeability increase” value in series [6] (10 μM) is given as “no effect”; in [6] (25 μM), “no effect”; in [6] (100 μM) it was 71%. The results for the “reduction of hyperthermia-augmented neutrophil TEM” value in series [7] (10 μM), in series [7] (25 μM) and in series [7] (50 μM) were 18%, 89% and “less than baseline levels”, respectively.
For the molecule `NC(=O)c1ccc(N(C(N)=O)c2c(F)cccc2F)nc1-c1ccc(F)cc1F` [VX-702], the “proportion of treated subjects with ACR20 symptom score vs. placebo” value in series [8] is reported as “small increases”.
Regarding `COc1ccccc1N1CCN(CCCCNS(=O)(=O)c2ccc(C)cc2)CC1` [compound 2], the “p38α ΔTm (° C.) @100 μM” value in [2] (setting [11]) is −0.05 °C. The “ERK2 ΔTm (° C.) @100 μM” value in [5] (setting [11]) was determined as 0.412 °C.
Consider `O=C1NCCN1CCNS(=O)(=O)c1ccc(S(=O)(=O)c2ccccc2)s1` [compound 3], for which, in series [2] (setting [11]), the “p38α ΔTm (° C.) @100 μM” value came to 0.282 °C. Further, the “stabilization of p38α in DSF” value in [2] was “concentration-dependent stabilization of p38α”. The “ERK2 ΔTm (° C.) @100 μM” value in series [5] (setting [11]) was determined as 0.337 °C. For the same molecule, the “stabilization of ERK2 in DSF” value in series [5] is listed as “also stabilized ERK2”.
Regarding `CN1CCN(CC(=O)Nc2ccc(S(N)(=O)=O)cc2)CC1` [compound 4], the “p38α ΔTm (° C.) @100 μM” value in [2] (setting [11]) is 0.065 °C. The “ERK2 ΔTm (° C.) @100 μM” value in [5] (setting [11]) came to 0.452 °C.
With `CN1CCN(c2ccc(CNS(=O)(=O)c3ccc(-c4ccon4)s3)cc2)CC1` [compound 5], in series [2] (setting [11]), the “p38α ΔTm (° C.) @100 μM” value was 0.808 °C. Moreover, in [2], the “stabilization of p38α in DSF” value was “concentration-dependent stabilization of p38α”. For the same molecule, the “ERK2 ΔTm (° C.) @100 μM” value in series [5] (setting [11]) is 0.628 °C. Besides, the “stabilization of ERK2 in DSF” value in series [5] is on record as “also stabilized ERK2”.
As for `Cc1nc(-c2ccc(S(=O)(=O)NCCCN)s2)cs1` [compound 8], the “p38α ΔTm (° C.) @100 μM” value in [2] (setting [11]) is −0.07 °C. Besides, in [5] (setting [11]), the “ERK2 ΔTm (° C.) @100 μM” value came out at 0.531 °C.
The corresponding values for `CS(=O)(=O)N1CCN(c2ncccc2C(F)(F)F)CC1` [compound 13] are 0.005 °C and 0.390 °C.
On to `O=S(=O)(c1ccccc1)N(Cc1ccccn1)Cc1ccccn1` [compound 16], for which the “p38α ΔTm (° C.) @100 μM” value in series [2] (setting [11]) is −0.052 °C. In addition, the “ERK2 ΔTm (° C.) @100 μM” value in [5] (setting [11]) was found to be 0.444 °C.
Take `O=S(=O)(NCc1csc(-c2cccs2)n1)c1ccc2c(c1)CCO2` [compound 23]: the “p38α ΔTm (° C.) @100 μM” value in [2] (setting [11]) was −0.488 °C. Further, the “ERK2 ΔTm (° C.) @100 μM” value in [5] (setting [11]) is −0.598 °C.
The corresponding values for `O=S(=O)(CCS(=O)(=O)c1ccccn1)c1ccc(Cl)cc1` [compound 69] are −0.233 °C and 0.361 °C.
`O=C(CSc1cccs1)NCCSCc1ccco1` [compound 146]: in series [2] (setting [11]), the “p38α ΔTm (° C.) @100 μM” value was −1.084 °C. For the same molecule, the “ERK2 ΔTm (° C.) @100 μM” value in [5] (setting [11]) was −1.632 °C.
The corresponding values for `Cc1nc(S(=O)(=O)NCc2cc(F)cc3c2OCOC3)cn1C` [compound 150] are −0.171 °C and 0.133 °C.
Consider `Cc1cc(F)ccc1-c1nc(NC(CO)CO)nc2c1ccc(=O)n2-c1c(F)cccc1F` [dilmapimod], for which the “serum C-reactive protein (CRP) levels” value in series [9] (patients at-risk for ARDS) is on record as “modestly reduced”. Besides, in series [9], the “safety in patients at-risk for ARDS” value is listed as “safe at the doses administered”.
Take `Cc1c(F)cc(C(=O)NC2CC2)cc1-c1ccc(C(=O)NCC(C)(C)C)cn1` [losmapimod]: in [10], the “serum CRP” value is on record as “reduced” and the vascular relaxation entry was “improved”.

These data come from US11911393B2, “Non-catalytic substrate-selective p38alpha-specific MAPK inhibitors with endothelial-stabilizing and anti-inflammatory activity, and methods of use thereof” (University of Maryland, Baltimore, priority 2016, dated 2024).
